Experimental data: the NIST ThermoML archive (doi:10.1016/j.jct.2004.12.008)

Assay: xn = mol fraction of the nth substance listed
Conditions: 101 kPa, Liquid

O=[N+]([O-])c1ccccc1 [nitrobenzene] + Cc1cccc(C)c1
Conditions	mass density [kg/m3]
293.15 K, x2 = 0	1202.95
293.15 K, x2 = 0.0549	1181.56
293.15 K, x2 = 0.1248	1154.92
293.15 K, x2 = 0.1832	1133.14
293.15 K, x2 = 0.2489	1109.13
293.15 K, x2 = 0.3134	1086.03
293.15 K, x2 = 0.3681	1066.8
293.15 K, x2 = 0.4234	1047.66
293.15 K, x2 = 0.4892	1025.28
293.15 K, x2 = 0.5321	1010.91
293.15 K, x2 = 0.6013	988.09
293.15 K, x2 = 0.6539	971.01
293.15 K, x2 = 0.7242	948.56
293.15 K, x2 = 0.7811	930.68
293.15 K, x2 = 0.8631	905.36
293.15 K, x2 = 0.9321	884.44
303.15 K, x2 = 0	1193.56
303.15 K, x2 = 0.0478	1174.85
303.15 K, x2 = 0.1132	1149.78
303.15 K, x2 = 0.1812	1124.32
303.15 K, x2 = 0.2343	1104.85
303.15 K, x2 = 0.2943	1083.27
303.15 K, x2 = 0.3535	1062.36
303.15 K, x2 = 0.4143	1041.29
303.15 K, x2 = 0.4711	1021.95
303.15 K, x2 = 0.5243	1004.13
303.15 K, x2 = 0.6123	975.24
303.15 K, x2 = 0.6811	953.14
303.15 K, x2 = 0.7423	933.82
303.15 K, x2 = 0.8132	911.82
303.15 K, x2 = 0.8834	890.44
303.15 K, x2 = 0.9432	872.53
313.15 K, x2 = 0	1183.37
313.15 K, x2 = 0.0723	1155.17
313.15 K, x2 = 0.1289	1133.64
313.15 K, x2 = 0.1732	1117.09
313.15 K, x2 = 0.2212	1099.45
313.15 K, x2 = 0.2811	1077.85
313.15 K, x2 = 0.3635	1048.82
313.15 K, x2 = 0.4244	1027.87
313.15 K, x2 = 0.4823	1008.31
313.15 K, x2 = 0.5423	988.4
313.15 K, x2 = 0.6131	965.35
313.15 K, x2 = 0.6732	946.15
313.15 K, x2 = 0.749	922.4
313.15 K, x2 = 0.8313	897.16
313.15 K, x2 = 0.8724	884.76
313.15 K, x2 = 0.9331	866.7
323.15 K, x2 = 0	1172.38
323.15 K, x2 = 0.0698	1145.18
323.15 K, x2 = 0.1321	1121.54
323.15 K, x2 = 0.1832	1102.55
323.15 K, x2 = 0.2576	1075.53
323.15 K, x2 = 0.3139	1055.55
323.15 K, x2 = 0.3781	1033.23
323.15 K, x2 = 0.4527	1007.89
323.15 K, x2 = 0.5198	985.6
323.15 K, x2 = 0.5631	971.45
323.15 K, x2 = 0.6398	946.86
323.15 K, x2 = 0.7043	926.6
323.15 K, x2 = 0.7731	905.4
323.15 K, x2 = 0.8343	886.88
323.15 K, x2 = 0.8623	878.51
323.15 K, x2 = 0.9423	854.95
333.15 K, x2 = 0	1160.59
333.15 K, x2 = 0.0499	1141.14
333.15 K, x2 = 0.1244	1112.83
333.15 K, x2 = 0.1674	1096.86
333.15 K, x2 = 0.234	1072.65
333.15 K, x2 = 0.3089	1046.1
333.15 K, x2 = 0.3598	1028.47
333.15 K, x2 = 0.4242	1006.59
333.15 K, x2 = 0.4972	982.35
333.15 K, x2 = 0.5672	959.63
333.15 K, x2 = 0.6319	939.07
333.15 K, x2 = 0.7133	913.77
333.15 K, x2 = 0.7632	898.55
333.15 K, x2 = 0.8347	877.13
333.15 K, x2 = 0.8824	863.08
333.15 K, x2 = 0.9323	848.58
343.15 K, x2 = 0	1148
343.15 K, x2 = 0.0598	1124.88
343.15 K, x2 = 0.1123	1105.06
343.15 K, x2 = 0.1842	1078.58
343.15 K, x2 = 0.2542	1053.5
343.15 K, x2 = 0.3243	1029.04
343.15 K, x2 = 0.3831	1008.98
343.15 K, x2 = 0.4425	989.14
343.15 K, x2 = 0.5131	966.07
343.15 K, x2 = 0.5728	946.96
343.15 K, x2 = 0.6392	926.14
343.15 K, x2 = 0.6901	910.47
343.15 K, x2 = 0.7532	891.38
343.15 K, x2 = 0.8242	870.31
343.15 K, x2 = 0.8731	856.05
343.15 K, x2 = 0.9238	841.48
353.15 K, x2 = 0	1134.61
353.15 K, x2 = 0.0532	1114.19
353.15 K, x2 = 0.1289	1085.92
353.15 K, x2 = 0.1984	1060.73
353.15 K, x2 = 0.2429	1044.96
353.15 K, x2 = 0.3092	1021.96
353.15 K, x2 = 0.3711	1000.98
353.15 K, x2 = 0.4248	983.16
353.15 K, x2 = 0.4891	962.26
353.15 K, x2 = 0.5518	942.3
353.15 K, x2 = 0.6138	922.97
353.15 K, x2 = 0.6731	904.84
353.15 K, x2 = 0.7294	887.93
353.15 K, x2 = 0.8013	866.76
353.15 K, x2 = 0.8673	847.71
353.15 K, x2 = 0.9451	825.73

O=[N+]([O-])c1ccccc1 [nitrobenzene] + Cc1ccccc1C
Conditions	mass density [kg/m3]
293.15 K, x2 = 0	1202.95
293.15 K, x2 = 0.0498	1184.47
293.15 K, x2 = 0.1289	1155.75
293.15 K, x2 = 0.1892	1134.33
293.15 K, x2 = 0.2532	1112.04
293.15 K, x2 = 0.3234	1088.07
293.15 K, x2 = 0.3891	1066.07
293.15 K, x2 = 0.4421	1048.61
293.15 K, x2 = 0.4923	1032.31
293.15 K, x2 = 0.5534	1012.76
293.15 K, x2 = 0.6132	993.93
293.15 K, x2 = 0.6734	975.26
293.15 K, x2 = 0.7321	957.32
293.15 K, x2 = 0.7931	938.95
293.15 K, x2 = 0.8523	921.38
293.15 K, x2 = 0.9323	898.02
303.15 K, x2 = 0	1193.56
303.15 K, x2 = 0.0535	1173.86
303.15 K, x2 = 0.1123	1152.62
303.15 K, x2 = 0.1782	1129.29
303.15 K, x2 = 0.2423	1107.06
303.15 K, x2 = 0.3139	1082.76
303.15 K, x2 = 0.3687	1064.49
303.15 K, x2 = 0.4348	1042.84
303.15 K, x2 = 0.5023	1021.14
303.15 K, x2 = 0.5681	1000.36
303.15 K, x2 = 0.6189	984.56
303.15 K, x2 = 0.6892	963.04
303.15 K, x2 = 0.7422	947.07
303.15 K, x2 = 0.8021	929.26
303.15 K, x2 = 0.8731	908.5
303.15 K, x2 = 0.9298	892.17
313.15 K, x2 = 0	1183.37
313.15 K, x2 = 0.0621	1160.16
313.15 K, x2 = 0.1298	1135.44
313.15 K, x2 = 0.1924	1113.1
313.15 K, x2 = 0.2499	1092.98
313.15 K, x2 = 0.3234	1067.82
313.15 K, x2 = 0.3891	1045.81
313.15 K, x2 = 0.4348	1030.76
313.15 K, x2 = 0.5109	1006.14
313.15 K, x2 = 0.5782	984.82
313.15 K, x2 = 0.6328	967.81
313.15 K, x2 = 0.6902	950.21
313.15 K, x2 = 0.7591	929.44
313.15 K, x2 = 0.8244	910.1
313.15 K, x2 = 0.8823	893.22
313.15 K, x2 = 0.9357	877.88
323.15 K, x2 = 0	1172.38
323.15 K, x2 = 0.0634	1147.74
323.15 K, x2 = 0.1244	1124.62
323.15 K, x2 = 0.1824	1103.12
323.15 K, x2 = 0.2311	1085.44
323.15 K, x2 = 0.2893	1064.7
323.15 K, x2 = 0.3214	1053.45
323.15 K, x2 = 0.3855	1031.35
323.15 K, x2 = 0.4345	1014.79
323.15 K, x2 = 0.4902	996.28
323.15 K, x2 = 0.5689	970.68
323.15 K, x2 = 0.6321	950.58
323.15 K, x2 = 0.7024	928.68
323.15 K, x2 = 0.7842	903.78
323.15 K, x2 = 0.8725	877.55
323.15 K, x2 = 0.9432	857.03
333.15 K, x2 = 0	1160.59
333.15 K, x2 = 0.0598	1135.86
333.15 K, x2 = 0.1132	1114.33
333.15 K, x2 = 0.1935	1082.9
333.15 K, x2 = 0.2491	1061.75
333.15 K, x2 = 0.3011	1042.41
333.15 K, x2 = 0.3672	1018.4
333.15 K, x2 = 0.4189	1000.06
333.15 K, x2 = 0.4783	979.42
333.15 K, x2 = 0.5389	958.84
333.15 K, x2 = 0.5901	941.8
333.15 K, x2 = 0.6598	919.09
333.15 K, x2 = 0.7243	898.58
333.15 K, x2 = 0.7929	877.26
333.15 K, x2 = 0.8687	854.25
333.15 K, x2 = 0.9244	837.72
343.15 K, x2 = 0	1148
343.15 K, x2 = 0.0587	1121.63
343.15 K, x2 = 0.1321	1089.78
343.15 K, x2 = 0.1849	1067.6
343.15 K, x2 = 0.2378	1045.95
343.15 K, x2 = 0.3012	1020.73
343.15 K, x2 = 0.3519	1001.09
343.15 K, x2 = 0.4242	973.86
343.15 K, x2 = 0.4981	946.94
343.15 K, x2 = 0.5533	927.38
343.15 K, x2 = 0.6232	903.27
343.15 K, x2 = 0.6623	890.09
343.15 K, x2 = 0.7429	863.56
343.15 K, x2 = 0.8122	841.44
343.15 K, x2 = 0.8823	819.66
343.15 K, x2 = 0.9422	801.51
353.15 K, x2 = 0	1134.61
353.15 K, x2 = 0.0623	1103.66
353.15 K, x2 = 0.1133	1079.21
353.15 K, x2 = 0.1892	1044.18
353.15 K, x2 = 0.2489	1017.71
353.15 K, x2 = 0.3129	990.32
353.15 K, x2 = 0.3798	962.71
353.15 K, x2 = 0.4124	949.61
353.15 K, x2 = 0.483	922.01
353.15 K, x2 = 0.5345	902.52
353.15 K, x2 = 0.6084	875.41
353.15 K, x2 = 0.6631	855.98
353.15 K, x2 = 0.7249	834.64
353.15 K, x2 = 0.7931	811.8
353.15 K, x2 = 0.852	792.66
353.15 K, x2 = 0.9123	773.59
